Laboratory results published in patent publication US9133230B2, “Hydrazone derivatives having potent antitumor activity toward multi-drug resistant tumor cells” (THE UNITED STATES OF AMERICA AS REPRESENTED BY THE …, priority 2011, dated 2015).

Assays:
Format in all cases: cell-based
[1] = system: human breast carcinoma MCF-7; assay: MTS cytotoxicity assay, MCF-7; conditions: Homo sapiens, MCF7, 48 h incubation
Description: (§1) In order to obtain information about the growth-inhibiting action of hydrazones reported in the present invention on tumor cells, growth inhibition was assessed for the following human tumor cell lines: human myelogenous leukemia K562, human cervical adenocarcinoma HeLa, human colon adenocarcinoma Caco-2, human colon carcinoma HT-29, human colon carcinoma HCT-15, and human breast carcinoma MCF-7.
(§2) The K562, HeLa, HT-29, HCT-15, Caco-2, and MCF-7 cell lines were obtained from the American type Culture Collection (ATCC, Manassas, Va.). K562 cells were maintained in RPMI 1640 medium (Gibco/Life Technologies, Gaithersburg, Md.) containing 10% heat-inactivated fetal bovine serum (FBS) (Atlanta Biologicals, Atlanta, Ga.) and 10000 U/L penicillin and 50 mg/L streptomycin. HeLa, HT-29, HCT-15, Caco-2 and MCF-7 cells were maintained in MEM with Earl's balanced salts, 10% FBS, penicillin, and streptomycin as above. Logarithmically growing HT-29, Caco-2, and MCF-7 cells were incubated with 0.05% trypsin containing 1 mM EDTA at 37° C. for about 5 min until cells were nonadherent and formed a single cell suspension. Trypsin activity was neutralized by adding 20-fold excess of the serum-containing medium. Cells were cultured at 37° C. in an atmosphere of air and 5% CO2.
(§3) Cytotoxicity assays were conducted by tetrazolium reduction of 3-(4,5-dimethylthiazol-2-yl)-5-(3-carboxymethoxyphenyl)-2-(4-sulfophenyl)-2H-tetrazolium (MTS) with N-methylphenazonium methyl sulfate (PMS) (CellTiter Assay, Promega, Madison, Wis.). Logarithmically growing cells were plated in 0.1 mL aliquots in 96-well microtiter plates. Cells were plated at an initial density of about 5000 cells/mL and allowed to acclimatize for 24 h. Cell suspensions were treated with various dilutions of compounds in triplicate, mixed well, and allowed to incubate for 48 h at 37° C. in an atmosphere of air and 5% CO2. To the cell suspension was added 20 μL of tetrazolium reagent, the mixture was incubated for 2 h at 37° C. in an atmosphere of air and 5% CO2, and absorbance at 490 nm was read by microplate reader. Control plates with serial dilutions of cell types were counted as a control for the assay. In all cases, controls indicated a linear response versus cell number, R^2≧0.99.

HL60 = assay: MTS cytotoxicity on MDR tumor cells, HL60; conditions: Homo sapiens, HL-60, Vincristine (VCR) sensitive, 72 hr incubation
[2] = system: 60 human tumor cell lines; assay: NCI 60 human tumor cell line screen, all cell lines
Excerpt: (§4) Selected compounds were submitted for testing in the organ-specific panel of human tumor cell lines at the National Cancer Institute, Bethesda, Md. This screen utilized 60 human tumor cell lines, representing leukemia, melanoma, and cancers of the lung, colon, brain, ovary, kidney, prostate, and breast (Boyd, M. R., “Status of the NCl preclinical antitumor drug discovery screen”. In Principles and practice of oncology updates; De Vita, V. T., Jr. Hellman, S., Rosenberg, S. A., Eds.; Lippincott: Philadelphia, Pa., 1989; Vol. 3, pp 1-12).
(§5) The MG MID value is the average of the GI50 values for all the cell lines tested for drug concentrations in the range of 10^−4-10^−8 M (See website domain: dtp.nci.nih.gov/dtp).

breast cancer cell lines = assay: NCI 60 human tumor cell line screen, breast; conditions: Homo sapiens, arithmetic mean of two to nine cancer cell lines, read-out: Inhibitory concentration GI50, breast
Excerpt: as §4, §5

melanoma cell lines = assay: NCI 60 human tumor cell line screen, melanoma; conditions: Homo sapiens, arithmetic mean of two to nine cancer cell lines, read-out: Inhibitory concentration GI50, melanoma
Excerpt: as §4, §5

[3] = system: human colorectal carcinoma HT29; assay: Western blot of signal transduction pathways in HT29 cells; conditions: HT29, IC50 dose
Description: The newly synthesized hydrazones RPC038, RPC042, and RPC046 had shown anti-tumor activity against 60 human cancer cell lines panel of the National Cancer Institute and on multi-drug resistant cell lines. The present studies were conducted to evaluate their action on signal transduction pathways in human colorectal carcinoma HT29. All the three compounds were examined at their IC50 doses.
Human colorectal carcinoma HT29 cells were obtained from the National Cancer Institute, Bethesda, Md., USA, and maintained in 5% CO2 at 37° C. in minimum essential media (Life Technologies, Inc., Grand Island, N.Y., USA) supplemented with 1% penicillin, streptomycin (Invitrogen, Carlsbad, Calif., USA), and 10% fetal bovine serum for optimal growth. HT29 cells (1×10^6) were plated in […], and 24 h later, fresh media was added and treated with the RPC038, RPC042 and RPC046 for indicated time points (2, 4, 8, 16 and 24 h). The cells were then washed with cold phosphate buffered saline (PBS) and taken in 1 ml PBS on ice and centrifuged at 4° C. The pellet was resuspended in appropriate volumes of radio immunoprecipitation assay buffer with protease inhibitor, kept on ice for 45 min and subsequently centrifuged at 4° C. An aliquot of supernatant (protein extract) was used to estimate the protein concentration. An aliquot of protein extract (40 μg) was subjected to Western blot analysis on a 12% polyacrylamide gel and transferred to nitrocellulose membrane. Blots were blocked, incubated with primary anti-pMEK, pERK, pJNK, pcjun, ERK, JNK, Cjun, Caspase-8, Caspase-6, PARP cleavage, or GAPDH antibodies (Cell Signaling Technology, Danvers, Mass.) and then conjugated with a secondary anti-mouse or an anti-rabbit horseradish […] antibody, and detected by ChemiDoc™ XRS+ System with Image Lab™ Software.

HL60-VCR = assay: MTS cytotoxicity on MDR tumor cells, HL60-VCR; conditions: HL60/VCR, Vincristine (VCR) resistant, 72 hr incubation
colon cancer cell lines = assay: NCI 60 human tumor cell line screen, colon; conditions: Homo sapiens, arithmetic mean of two to nine cancer cell lines, read-out: Inhibitory concentration GI50, colon
Excerpt: as §4, §5

[4] = system: human colon adenocarcinoma Caco-2; assay: MTS cytotoxicity assay, Caco-2; conditions: Homo sapiens, Caco-2, 48 h incubation
Description: as §1, §2, §3

[5] = system: human colorectal carcinoma HT29; assay: Annexin-V FACS analysis of apoptosis; conditions: FIGS. 3 and 4, treated versus control cells
Description: This activation was through ERK signaling and not through JNK signaling, resulting in PARP cleavage after 16 h. […] Activation of NFkB (p50) was also observed following treatment with these compounds.

[6] = system: human colon carcinoma HCT-15; assay: MTS cytotoxicity assay, HCT-15; conditions: Homo sapiens, HCT-15, 48 h incubation
Description: as §1, §2, §3

[7] = system: human colorectal carcinoma HT29; assay: Western blot of signal transduction pathways in HT29 cells; conditions: HT29, IC50 dose; remark: listed apart in the source

## C(=NNc1ncnc2[nH]cnc12)c1ccccn1 [I-18, 6-(2-(Pyridin-2-ylmethylene)hydrazinyl)-9H-purine]
[1]
  GI50: 3.2 µM
HL60
  GI50: 1200 nM
[2]; Homo sapiens, average of the GI50 values for all the cell lines tested, drug concentrations 10^−4-10^−8 M, read-out: MG-MID (mean graph midpoint)
  mean GI50 (MG-MID): 977 nM
[2]; NCI screen, by cancer type
  cells found to be the most sensitive: prostate, ovarian, CNS, and melanoma cancer cell lines
Breast cancer cell lines
  GI50: 1150 nM
Melanoma cell lines
  GI50: 753 nM
[3]; Western blot pERK
  phosphorylation of ERK (time): 4 h
[3]; Western blot pJNK (results not shown)
  phosphorylation of JNK: without phosphorylation of JNK
[3]; Western blot pMEK
  MEK activation (time): 2 h
[3]; Western blot pcjun
  activation of cjun (time): 6 h
[3]; initial studies
  Caspase activation: Caspase-3 activation through Caspase-6 and not through Caspase-8
HL60-VCR
  GI50: 700 nM
Colon cancer cell lines
  GI50: 1370 nM
[4]
  GI50: 2200 nM
[5]
  Apoptosis (Annexin-V, FACS analysis): Apoptosis was also established
[6]
  GI50: 2000 nM
[7]
  Activation of NFkB (p50): observed
